Source: patent US20160271513A1, “DRYING TECHNIQUES FOR MICROFLUIDIC AND OTHER SYSTEMS” (PRESIDENT AND FELLOWS OF HARVARD COLLEGE, priority 2013, published 2016)

Key:
[1] = room temperature
Experimental: To calculate the time available for crystalline nuclei to form, the saturation concentration of NaCl was measured in water at room temperature to be 6.3 mol/l.

[2] = Structure and storage stability of spray-dried drug nanoparticles by X-ray diffraction; assay type: physicochemical
Experimental: While the characteristic size below which particles were entirely amorphous is system-specific, the suppression of nucleation in small droplets relies on a generally applicable physical principle. […] To test this expectation, the structure of spray-dried clotrimazole, estradiol, and danazol was examined using X-ray diffraction (XRD). To keep the nucleation time the same, they were dissolved at 10% of their saturation concentration. In agreement with the above, these spray-dried drug nanoparticles were amorphous.
Production of amorphous drugs may require the addition of excipients. However, despite the presence of excipients, these drugs tend to crystallize with time leading to a change in their dissolution kinetics; this prevents their application in industry. […] These drugs all had glass transition temperatures, Tg, above room temperature; they were therefore glasses at room temperature.
XRD. X-ray diffraction was performed on spray-dried nanoparticles collected onto a one-side polished (100) Si wafer for 11 h. Measurements were acquired on a XDS2000 instrument (Scintac Inc.) using a Cu Kα (K alpha) source with a wavelength λ=0.154056 nm. The angle 2θ was varied between 2 and 70° at a rate of 1°/min.
It was expected to crystallize over time if stored at room temperature even if it is initially fully amorphous.
To test if the nebulator also allowed production of amorphous nanoparticles from materials with a Tg […] room temperature, which would be a glass at room temperature, clotrimazole, estradiol, and danazol, all poorly water soluble drugs with Tgs above 20° C., were spry dried. The size of the spray dried nanoparticles was determined by the initial solute concentration and the initial drop size. To ensure similar sizes of the spray dried nanoparticles, the initial solute concentration was fixed to 5 mg/ml. […] Thus, the nebulator allowed formulation of poorly water soluble drugs as amorphous nanoparticles.
To ease the handling drugs, fenofibrate was co-spray dried with different types of excipients. […] Four different types of Pluronics were compared: F68 and F127 are solids at room temperature and Pluronics P84 and P104 are pastes at room temperature.
By analogy to Pluronics, drugs spray dried from solutions containing equal weights of drugs and excipients were crystalline. By contrast, increasing the weight fraction of PVP five-fold results in XRD-amorphous danazol nanoparticles, in agreement to danazol nanoparticles formulated using the microfluidic spray drier.
To maintain the stability of spray dried amorphous nanoparticles and facilitate their handling by embedding them in an excipient matrix, PVP was deposited on a Si-wafer and subsequently drugs were spray dried into the PVP matrix. […] However, because excipients were not required to make the drug amorphous but rather to ease their handling, this procedure is generally applicable to the formulation of many different types of drugs, by contrast to the solid dispersions where the appropriate excipients must be selected for each system individually. Thus, the nebulator used in this example allowed the formulation of amorphous drug nanoparticles that optionally could be sprayed into an excipient matrix to facilitate their handling.

[3] = Crystalline fraction of spray-dried nanoparticles by differential scanning calorimetry; assay type: physicochemical
Experimental: The size of inorganic nanoparticles can influence their structure.
DSC. Differential scanning calorimetry was performed on spray-dried nanoparticles that are collected in an aluminium based Tzero DSC pan. To obtain sufficient amounts of samples, nanoparticles were collected for 11 h before being sealed in the DSC pan with a Tzero Hermetic Lid (TA Instruments). DSC was measured on a DSC Q200 at a nitrogen flow rate of 50 ml/min (TA instruments); the temperature was increased from 40° C. to 85° C. at a rate of 1° C./min and subsequently the sample was cooled to 25° C. at the same rate. To quantify the amount of nanoparticles, thermogravimetry analysis (TGA) was performed on these samples after completing the DSC analysis. For this, the hermetically sealed pans were opened and TGA was performed on these samples by increasing the temperature from 25° C. to 400° C. at a rate of 10° C./min under a N2 flow of 10 ml/min (Q5000, TA instrument). The absolute mass loss was measured between 100° C. and 300° C. and the DSC data was normalized accordingly.

[4] = spray-dried from ethanol without excipients, 0.28 MPa
[5] = spray-dried without excipients, stored under ambient conditions

SMILES: [Cl-].[Na+] [NaCl]
- saturation concentration of NaCl in water [1]: 6.3 mol/L

SMILES: Clc1ccccc1C(c1ccccc1)(c1ccccc1)n1ccnc1 [clotrimazole]
- structure of spray-dried nanoparticles (XRD) [2, 4]: amorphous
- crystallization on storage [2, 5]: did not crystallize if stored under ambient conditions for at least four weeks

SMILES: C#C[C@]1(O)CC[C@H]2[C@@H]3CCC4=Cc5oncc5C[C@]4(C)[C@H]3CC[C@@]21C [danazol]
- structure of spray-dried nanoparticles (XRD) ([2]; co-spray dried with PVP, PVP five times the drug): XRD-amorphous
- structure of spray-dried nanoparticles (XRD) ([2]; co-spray dried with Pluronics F68, F127, P84 or P104, equal weights): contain a significant fraction of crystalline regions
- crystallization on storage ([2]; co-spray dried with equal weight of Pluronics (F68, F127, P84, P104), two weeks under ambient conditions): this fraction markedly increases after storing the sample for two weeks under ambient conditions
- structure of spray-dried nanoparticles (XRD) ([2]; pure drug spray dried onto a PVP matrix): XRD-amorphous
- structure of spray-dried nanoparticles (XRD) [2, 4]: amorphous
- crystallization on storage [2, 5]: did not crystallize if stored under ambient conditions for at least four weeks

SMILES: CC(C)OC(=O)C(C)(C)Oc1ccc(C(=O)c2ccc(Cl)cc2)cc1 [fenofibrate]
- crystalline fraction from area of the melting peak ([3]; 25 nm large particles): 6 vol %
- crystalline fraction from area of the melting peak ([3]; particles with a diameter of 20 nm): 3 vol %
